Legend:
K. pneumoniae NCTC 418 = conditions: broth microdilution, two independent experiments in duplicate
E. coli W3110 = conditions: broth microdilution, two independent experiments in duplicate
S. aureus Newman = conditions: MH medium pH 7.4, 16–20 h at 37°C; two independent experiments in duplicate
P. aeruginosa ZEM-1A = conditions: MDR clinical isolate; MH medium pH 7.4, 16–20 h at 37°C; two independent experiments in duplicate
[1] = system: S aureus COL (methicillin-resistant Staphylococcus aureus); conditions: broth microdilution, two independent experiments in duplicate
human red blood cells = assay: Hemolysis assay (MHC); conditions: Table 1; human red blood cells in PBS (pH 7.4), 4 h, visual inspection; two independent experiments in duplicate
P. aeruginosa ZEM9A = conditions: clinical isolate; MH medium pH 7.4, 16–20 h at 37°C; two independent experiments in duplicate
P. aeruginosa PA14 = conditions: MH medium pH 7.4, 16–20 h at 37°C; two independent experiments in duplicate
S. maltophilia = conditions: MH medium pH 7.4, 16–20 h at 37°C; two independent experiments in duplicate
P. aeruginosa PAO1 [2] = conditions: broth microdilution, two independent experiments in duplicate
A. baumannii ATCC 19606 = conditions: broth microdilution, two independent experiments in duplicate
P. aeruginosa PAO1 [3] = assay: DiSC3(5) inner membrane depolarization assay; assay type: cell-based, Pseudomonas aeruginosa; conditions: PAO1 in HEPES buffer pH 7.4, 2 μM DiSC3(5), up to 64 μg/mL, read within 5 min
Description: page 29: 11. DiSC3(5) Membrane Depolarization Assay A single colony of Pseudomonas aeruginosa PAO1 was grown overnight with shaking (150 rpm) in LB-broth (5 mL) at 37 °C. 100 μL of the overnight culture was regrown in 10 mL LB- broth with shaking (200 rpm) to the exponential phase OD 600 = 1 (10^9 CFU/mL). Bacteria were washed once with HEPES buffer (5 mM HEPES, 5 mM glucose, pH 7.4) and diluted to OD 600 = 0.4. Stock solution of 10 mM of DiSC3(5) was prepared in DMSO. Stock solutions of 1 mg/mL of the compounds were prepared in sterilized milli-Q water and diluted to the beginning concentration of 128 μg/mL in 200 μL HEPES buffer containing […] the fluorescent probe DiSC3(5) 4 μM. The diluted samples were added to the first well of 96-well plates (black wells, flat bottom, BRAND® GmbH Wertheim, Germany) and diluted serially by 1/2. 100 μL of the bacterial suspension in HEPES buffer (without DiSC3(5)) were added to each well. In this case, the final OD of bacteria was 0.2, the final concentration of peptide in the first column is 64 μg/mL and DiSC3(5) 2 μM. The control wells are buffer containing DiSC3(5) and bacterial suspension containing DiSC3(5) in HEPES buffer. The plate was measured with a Tecan instrument Infinite M1000 within 5 min. The plate was enabled to shake for 5 sec before measurement. […]

E. cloacae = conditions: MH medium pH 7.4, 16–20 h at 37°C; two independent experiments in duplicate
P. aeruginosa PAO1 [4] = assay: PI cell permeabilization assay (flow cytometry); assay type: cell-based, Pseudomonas aeruginosa; conditions: PAO1 (OD600 = 1) incubated 20 min at 37°C, PI 5 µg/mL
Description: page 31: 12. Cell Membrane Permeability Assay Propidium iodide (PI) was used as the fluorescent dye to evaluate integrity of bacterial membranes. A single colony of Pseudomonas aeruginosa PAO1 was grown overnight with shaking (150 rpm) in LB-broth (5 mL) at 37 °C. 100 μL of the overnight culture was regrown in 10 mL LB-broth to the exponential phase OD600 1 (10^9 CFU/mL). Bacteria was washed with MH and then re-suspended to a working concentration of OD600 = 1. AMPDs and polymyxin B (stock solution 1 mg/mL) were added at different final concentrations ( 16, 32 and 64 μg/mL). Samples were incubated with shaking (150 rpm) at 37°C for 20 minutes before samples were centrifuged at 14 000 rpm for 3 min. Bacteria sample was washed twice with PBS and stained with PI 5 µg/mL in PBS with shaking (150 rpm) at 37°C for 20 minutes. Bacteria sample was washed 5 times with PBS and the fluorescence intensity of bacteria suspensions was observed and recorded on a ImageStream ® X Mark II Imaging Flow Cytometer with a 488 nm laser , bacteria cells wi th fluorescent intensity higher than 2 × 104 is defined as PI positive cells. Percentage of PI positive cells was calculated by IDEA S workstation . S30

K. pneumoniae OXA-48 = conditions: carbapenem-resistant strain; MH medium pH 7.4, 16–20 h at 37°C; two independent experiments in duplicate
B. cenocepacia = conditions: MH medium pH 7.4, 16–20 h at 37°C; two independent experiments in duplicate
HEK293 cell line = assay type: cell-based; conditions: HEK293 cell line, 48 h at 37°C, DMEM 10% FBS, AlamarBlue; mean ± SD, three independent experiments in triplicates
In short: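 HEK293 cells seeded at 2 × 10³/well, incubated 48 h at 37 °C with serially diluted compounds (stock 2 mg/mL) in DMEM with 10% FBS. AlamarBlue added at 10% final for 3–5 h; fluorescence ex 560/em 590 nm, normalized to untreated cells.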

[5] = Table 1, Müller-Hinton medium pH 7.4, 16–20 h at 37°C
[6] = Müller-Hinton medium pH 5.0, 16–20 h at 37°C
[7] = Müller-Hinton medium pH 8.0, 16–20 h at 37°C

polymyxin B [PMB, reference compound]
MIC at pH 7.4, K. pneumoniae NCTC 418 (K. pneumoniae NCTC 418; [5]): 0.25 μg/mL | MIC at pH 5.0, K. pneumoniae NCTC 418 (K. pneumoniae NCTC 418; [6]): 8 μg/mL | MIC at pH 8.0, K. pneumoniae NCTC 418 (K. pneumoniae NCTC 418; [7]): 0.25 μg/mL | MIC at pH 7.4, E. coli W3110 (E. coli W3110; [5]): 0.25 μg/mL | MIC at pH 5.0, E. coli W3110 (E. coli W3110; [6]): 0.02 μg/mL | MIC at pH 8.0, E. coli W3110 (E. coli W3110; [7]): 0.13 μg/mL | MIC, S. aureus Newman (S. aureus Newman): >64 µg/mL | MIC, P. aeruginosa ZEM-1A (P. aeruginosa ZEM-1A): 0.5 µg/mL | MIC at pH 5.0, S aureus COL [1, 6]: > 64 μg/mL | MIC at pH 7.4, S aureus COL ([1]; Müller-Hinton medium pH 7.4, 16–20 h at 37°C): > 64 μg/mL | MIC at pH 8.0, S aureus COL [1, 7]: 4 μg/mL | MHC (minimum hemolytic concentration) (human red blood cells): >2,000 μg/mL | MIC, P. aeruginosa ZEM9A (P. aeruginosa ZEM9A): 64 µg/mL | MIC, P. aeruginosa PA14 (P. aeruginosa PA14): 0.5 µg/mL | MIC, S. maltophilia (S. maltophilia): 4 µg/mL | MIC at pH 7.4, P. aeruginosa PAO1 (P. aeruginosa PAO1 [2]; [5]): 0.5 μg/mL | MIC at pH 5.0, P. aeruginosa PAO1 (P. aeruginosa PAO1 [2]; [6]): 0.03 μg/mL | MIC at pH 8.0, P. aeruginosa PAO1 (P. aeruginosa PAO1 [2]; [7]): 0.5 μg/mL | MIC at pH 7.4, A. baumannii ATCC 19606 (A. baumannii ATCC 19606; [5]): 0.25 μg/mL | MIC at pH 5.0, A. baumannii ATCC 19606 (A. baumannii ATCC 19606; [6]): 1 μg/mL | MIC at pH 8.0, A. baumannii ATCC 19606 (A. baumannii ATCC 19606; [7]): 0.25 μg/mL | Inner membrane depolarization (DiSC3(5) fluorescence), words (P. aeruginosa PAO1 [3]): did not depolarize the inner membrane | MIC, E. cloacae (E. cloacae): 0.5 µg/mL | Cell permeabilization (PI), percentage of PI-positive cells (P. aeruginosa PAO1 [4]; 16 μg/mL): 96% | Cell permeabilization (PI), percentage of PI-positive cells (P. aeruginosa PAO1 [4]; 32 μg/mL): 94% | Cell permeabilization (PI), percentage of PI-positive cells (P. aeruginosa PAO1 [4]; 64 μg/mL): 96% | MIC, K. pneumoniae OXA-48 (K. pneumoniae OXA-48): 1 µg/mL | MIC, B. cenocepacia (B. cenocepacia): >64 µg/mL | IC50 HEK293 (HEK293 cell line): 346 ± 20 µg/mL

Source: PMC9780108, “An intrinsically disordered antimicrobial peptide dendrimer from stereorandomized virtual screening” (Cell Reports. Physical Science, 2022)
